Some test systems named below: A498 renal; A549 NSCLC; CAKI-1 renal; DU-145 prostate; HL-60(TB) leukemia; HT29 colon; K-562 leukemia; OVCAR-3 ovarian; OVCAR-4 ovarian; SN12C renal.
Common to all, as to assay: NCI anticancer screen, dose series, 48 h

“And” between values parts separate entries of the source, which are not always exact repeats. Equal entries are not always repeated.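 All cell lines were grown in 96-well plates and treated with compound for 48 hours. The concentration for 50% growth inhibition is given as GI50. TGI: concentration producing complete growth inhibition.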 *1 amine or outer side, *2 acyl side, *3 side chain or, on linkers, in order; H or OH if unused. Where a SMILES comes first, the peptide text is derived from it. Bridges are numbered along the chain shown (N, C = ends). [ ]: non-standard residue; d: D form. The star is where a group is joined. Phe(3-Me) = Cc1cccc(C[C@H](N)C(=O)O)c1; NH(4-Cl-2-F-phenyl) = Fc1cc(Cl)ccc1N*; Pro(4R-Me) = C[C@H]1CN[C@H](C(=O)O)C1; Hyp = O=C(O)[C@@H]1C[C@@H](O)CN1; aThr = C[C@H](O)[C@H](N)C(=O)O; Pip = O=C(O)[C@@H]1CCCCN1; CO = O=C([*:1])[*:2]

Turning to `NC(=O)C1=C(c2ccccc2)c2ccccc2C1=O`, the TGI with A498 renal turned out to be 60.8 µM; in the test with A549 NSCLC, 37.6 µM; with CAKI-1 renal, 30.4 µM; in the test with DU-145 prostate it was 31.3 µM; in the test on HL-60(TB) leukemia, 18.1 µM; in the test with HT29 colon, 34.2 µM. Moreover, the TGI in the test with K-562 leukemia is over 100 µM; in the test on OVCAR-3 ovarian, 24.6 µM; in the test with OVCAR-4 ovarian it was 33.5 µM; in the test with SN12C renal it was 33.8 µM.
`CCc1oc2ccccc2c1C(=O)c1cc(Br)c(O)c(Br)c1`: the TGI was 45 µM in the test on A498 renal; over 100 µM in the test with A549 NSCLC; over 100 µM in the test on CAKI-1 renal; over 100 µM in the test with DU-145 prostate; 33.3 µM with HL-60(TB) leukemia; 74.7 µM in the test with HT29 colon. The TGI in the test with K-562 leukemia was 82.7 µM; in the test with OVCAR-3 ovarian, 43.2 µM; with OVCAR-4 ovarian, over 100 µM; in the test on SN12C renal, 67.3 µM.
For `COc1cc(-c2cc(-c3nc4ccccc4[nH]3)[nH]n2)cc(OC)c1OC`, the GI50 was 1.51 µM with A498 renal; 2.43 µM in the test with A549 NSCLC; 2.24 µM with CAKI-1 renal; 3.9 µM in the test on DU-145 prostate; 2.54 µM with HL-60(TB) leukemia; 7.16 µM in the test with HT29 colon. In addition, the GI50 with K-562 leukemia is 3.08 µM; in the test with OVCAR-3 ovarian, 4 µM; with OVCAR-4 ovarian, 1.26 µM; in the test on SN12C renal, 3.91 µM. In addition, the TGI stood at 27.1 µM with A498 renal; 15.1 µM in the test with A549 NSCLC; 14.4 µM in the test with CAKI-1 renal; 16.7 µM in the test with DU-145 prostate; 10.5 µM in the test on HL-60(TB) leukemia; 51.2 µM in the test with HT29 colon. In addition, the TGI with K-562 leukemia is over 100 µM; in the test with OVCAR-3 ovarian, 16.4 µM; with OVCAR-4 ovarian, 7.03 µM; in the test on SN12C renal it was 20.4 µM.
On to `COc1cccc(/C=C/C(=O)c2cc3c(N)c(C(=O)Nc4cccc(Cl)c4C)sc3nc2C)c1`, for which the GI50 is 0.897 µM with A498 renal; 1.72 µM with A549 NSCLC; 0.884 µM with CAKI-1 renal; 1.33 µM in the test on DU-145 prostate; 0.927 µM in the test with HL-60(TB) leukemia; 0.418 µM in the test with HT29 colon. For the same molecule, the GI50 with K-562 leukemia was 0.241 µM; in the test with OVCAR-3 ovarian, 0.854 µM; in the test on OVCAR-4 ovarian, 1.64 µM; with SN12C renal it was 1.21 µM. Also, the TGI with A498 renal is 3.07 µM; with A549 NSCLC it was over 50 µM; in the test with CAKI-1 renal, 2.53 µM; in the test with DU-145 prostate it was 3.98 µM; with HL-60(TB) leukemia, 2.84 µM; with HT29 colon, 2.41 µM. The TGI with K-562 leukemia was over 50 µM; in the test with OVCAR-3 ovarian, 2 µM; in the test with OVCAR-4 ovarian, over 14.1 µM; with SN12C renal, 3.43 µM.
On to `O=C(c1cc(-c2cc3c(cc2C(=O)N2Cc4ccccc4C[C@H]2CN2CCOCC2)OCO3)n2c1CCCC2)N(c1ccccc1)c1ccc(O)cc1`, for which the GI50 in the test on A498 renal is 2.71 µM; with A549 NSCLC it was 5.15 µM; with CAKI-1 renal, 3.56 µM; with DU-145 prostate, 18 µM; in the test on HL-60(TB) leukemia, 2.62 µM; in the test with HT29 colon it was 5.14 µM. The GI50 in the test with K-562 leukemia was 3.88 µM; in the test with OVCAR-3 ovarian, 5.55 µM; in the test on OVCAR-4 ovarian it was 8.35 µM; in the test with SN12C renal, 8.6 µM. For the same molecule, the TGI with A498 renal is 15.3 µM; with A549 NSCLC, over 100 µM; in the test on CAKI-1 renal, over 100 µM; in the test on DU-145 prostate, over 100 µM; in the test with HL-60(TB) leukemia, 7.16 µM; in the test on HT29 colon, over 100 µM. Besides, the TGI with K-562 leukemia, in the test with OVCAR-3 ovarian, with OVCAR-4 ovarian and in the test with SN12C renal was over 100 µM throughout.
Regarding `O=C1C(Cl)=C(N2CCOCC2)C(=O)c2ccccc21`, the GI50 in the test with A498 renal was 11.2 µM; in the test on A549 NSCLC it was 17.8 µM; in the test with CAKI-1 renal it was 1.88 µM; in the test with DU-145 prostate, 17.7 µM; in the test with HL-60(TB) leukemia, 2.33 µM; in the test on HT29 colon, 5.94 µM. In addition, the GI50 was 2.15 µM in the test with K-562 leukemia, 2.04 µM with OVCAR-3 ovarian, 1.61 µM in the test with OVCAR-4 ovarian and 10.7 µM with SN12C renal. The TGI with A498 renal was determined as 24.3 µM; with A549 NSCLC, 32.3 µM; with CAKI-1 renal, 3.49 µM; in the test on DU-145 prostate, 31.9 µM; with HL-60(TB) leukemia it was 5.32 µM; in the test on HT29 colon, 21.8 µM. The TGI in the test on K-562 leukemia was 7.8 µM; in the test with OVCAR-3 ovarian it was 3.58 µM; with OVCAR-4 ovarian, 3.02 µM; with SN12C renal it was 23.1 µM.
Turning to `Cc1cccc(C[C@H](NC(=O)Nc2ccc(Cl)cc2F)C(=O)N[C@@H]2C(=O)N3C[C@H](O)C[C@H]3C(=O)N3CCCC[C@H]3C(=O)N[C@@H](C)C(=O)N3C[C@H](C)C[C@H]3C(=O)O[C@H]2C)c1` ({NH(4-Cl-2-F-phenyl)-CO}-[Phe(3-Me)][aThr][Hyp][Pip]A[Pro(4R-Me)]; ester 2-C), the GI50 in the test with A498 renal is 0.327 µM; in the test on A549 NSCLC, 0.505 µM; in the test on CAKI-1 renal, 0.807 µM; in the test with DU-145 prostate it was 0.511 µM; with HL-60(TB) leukemia, 0.322 µM; in the test on HT29 colon, 0.547 µM. The GI50 in the test on K-562 leukemia was 0.221 µM; with OVCAR-3 ovarian, 0.438 µM; in the test on OVCAR-4 ovarian, 0.324 µM; in the test with SN12C renal, 0.393 µM. The TGI in the test on A498 renal came out at 2.15 µM; in the test with A549 NSCLC it was 12.1 µM; with CAKI-1 renal it was 5.58 µM; in the test with DU-145 prostate, 9.84 µM; in the test with HL-60(TB) leukemia, 1.79 µM; in the test on HT29 colon, 3.06 µM. Further, the TGI in the test with K-562 leukemia is over 33.7 µM; in the test on OVCAR-3 ovarian it was 1.75 µM; with OVCAR-4 ovarian, 2.68 µM; with SN12C renal, 4.6 µM.
For `Cc1c(CN2CCC(Nc3ncnc4sc(CC(F)(F)F)cc34)CC2)ccc2c1cc(C#N)n2Cc1cn[nH]c1`, the GI50 with A498 renal was 7.55 µM; with A549 NSCLC, 8.31 µM and 10.1 µM; in the test with CAKI-1 renal it was 4.43 µM; in the test with DU-145 prostate, 10.3 µM; in the test on HL-60(TB) leukemia, 2.74 µM and 2.83 µM; in the test with HT29 colon it was 1.75 µM and 2.45 µM. The GI50 in the test on K-562 leukemia is 0.883 µM and 1.14 µM; with OVCAR-3 ovarian, 10.4 µM; with OVCAR-4 ovarian, 2.2 µM and 1.77 µM; in the test with SN12C renal, 8.76 µM. For the same molecule, the TGI with A498 renal is 79.4 µM and > 39.1 µM; in the test on A549 NSCLC, 23.3 µM; in the test with CAKI-1 renal it was 22.1 µM and > 40.3 µM; with DU-145 prostate, 23.9 µM and > 40.5 µM; with HL-60(TB) leukemia it was 8.87 µM; in the test with HT29 colon, 5.95 µM. The TGI with K-562 leukemia is 4.17 µM and 4.95 µM; in the test on OVCAR-3 ovarian it was 24 µM; in the test with OVCAR-4 ovarian, 22.3 µM; with SN12C renal it was 26.4 µM.
For `Cc1nc(NC(=S)Nc2ccc(F)cc2)sc1C(=O)NNC(=S)Nc1ccc(F)cc1`, the GI50 in the test on A498 renal is 2.4 µM; in the test with A549 NSCLC, 5.29 µM; with CAKI-1 renal it was 11.4 µM; in the test with DU-145 prostate it was 5.53 µM; in the test on HL-60(TB) leukemia, 3.68 µM; in the test on HT29 colon, 8.58 µM. For the same molecule, the GI50 in the test with K-562 leukemia is 3.91 µM; in the test with OVCAR-3 ovarian, 2.55 µM; in the test on OVCAR-4 ovarian, 5.55 µM; with SN12C renal, 10.2 µM. The TGI came to 15.4 µM in the test on A498 renal; 45.5 µM in the test on A549 NSCLC; 44.9 µM in the test with CAKI-1 renal; 22.3 µM in the test on DU-145 prostate; 27.8 µM in the test on HL-60(TB) leukemia; 25.3 µM with HT29 colon. Further, the TGI in the test with K-562 leukemia is over 100 µM; with OVCAR-3 ovarian, 10.1 µM; with OVCAR-4 ovarian it was 60 µM; in the test with SN12C renal, 32.1 µM.
On to `c1ccc2[nH]c(-c3ccc(OCCCCCOc4ccc(-c5nc6ccccc6[nH]5)cc4)cc3)nc2c1`, for which the GI50 in the test with A498 renal is 6.51 µM; in the test on A549 NSCLC, 2.53 µM; in the test with CAKI-1 renal, 1.97 µM; with DU-145 prostate, 0.639 µM; with HL-60(TB) leukemia it was 1.28 µM; in the test on HT29 colon, 0.629 µM. Besides, the GI50 in the test with K-562 leukemia was 1.04 µM; in the test on OVCAR-3 ovarian it was 0.828 µM; in the test with OVCAR-4 ovarian it was 1.76 µM; in the test with SN12C renal it was 3.27 µM. For the same molecule, the TGI in the test on A498 renal was 15.8 µM; in the test on A549 NSCLC, over 47.4 µM; with CAKI-1 renal, 6.8 µM; in the test with DU-145 prostate, 3.41 µM; in the test with HL-60(TB) leukemia, 3.29 µM; in the test with HT29 colon it was 2.75 µM. The results for the TGI in the test on OVCAR-3 ovarian, with OVCAR-4 ovarian and in the test on SN12C renal were 1.84 µM, 3.64 µM and 10.2 µM, respectively.
With `CN(C)CCNC(=O)c1cc([N+](=O)[O-])ccn1`, the TGI with A498 renal is over 100 µM; in the test on A549 NSCLC, over 100 µM; in the test with CAKI-1 renal, over 100 µM; with DU-145 prostate, over 100 µM; with HL-60(TB) leukemia it was 46.4 µM; in the test on HT29 colon, 48.1 µM. Further, the TGI was 52.2 µM in the test on K-562 leukemia, 56.2 µM with OVCAR-3 ovarian, 43 µM in the test with OVCAR-4 ovarian and 64 µM with SN12C renal.
On to `Fc1ccc(-c2nnc3sc(-c4cccc(Cl)c4)nn23)cc1Cl`, for which the GI50 in the test with A498 renal, in the test with A549 NSCLC, in the test on CAKI-1 renal, with DU-145 prostate, in the test on HL-60(TB) leukemia and in the test with HT29 colon was over 100 µM each time. Also, the GI50 in the test with K-562 leukemia, in the test on OVCAR-3 ovarian, with OVCAR-4 ovarian and in the test on SN12C renal was over 100 µM throughout. The TGI in the test on A498 renal, in the test with A549 NSCLC, with CAKI-1 renal, in the test on DU-145 prostate, in the test on HL-60(TB) leukemia and with HT29 colon was over 100 µM in each case. Besides, the TGI in the test on K-562 leukemia, with OVCAR-3 ovarian, in the test on OVCAR-4 ovarian and with SN12C renal was over 100 µM each time.

(Values after PubChem BioAssay (NCI).)
